According to paper PMC8063472, “Pharmacokinetics of five phthalides in volatile oil of Ligusticum sinense Oliv.cv. Chaxiong, and comparison study on physicochemistry and pharmacokinetics after being formulated into solid dispersion and inclusion compound” (BMC Complementary Medicine and Therapies, 2021):
Read-outs that look alike come from different tables or passages of the source.

Columns and labels:
[1] = Pharmacokinetic study in rats (plasma LC-MS/MS) after iv or oral VOC, oral VOC-P188 or oral VOC-β-CD; assay type: in vivo, Sprague Dawley rats; settings: for AUC(0-t) / MRT last / Tmax / half-life / Cmax / bioavailability: male, Sprague-Dawley, rat, plasma; for MRT last: read-out: MRT0-t; for half-life: read-out: t1/2β (converted)
Method: The intravenous injection solution was prepared by dissolving 0.15 g of VOC in 25 ml water containing 3 ml 10% Tween-80 as solubilizer. The oral solution was prepared by dissolving 0.35 g of VOC in 25 ml normal saline containing 3 ml 10% Tween-80 as solubilizer. The VOC-P188 solution was prepared by mixing VOC-P188 5 g in 25 ml water with magnetic stirring apparatus. The VOC-β-CD solution was prepared by mixing VOC-β-CD 3.5 g in 25 ml water with magnetic stirring apparatus.
Twenty-four male SD rats (220 ~ 250 g) were randomly divided into four groups, 6 in each group. After fasting for 12 h before administration, the rats in group 1 were given VOC by tail vein injection at a dose of 30 mg/Kg, the rats at second group were oral administration of VOC solution, the dosage was 120 mg/Kg based on the mass of VOC. The rats at groups 3 and 4 were given VOC-P188 and VOC-β-CD, respectively.
Blood samples (0.3 ml) were collected from the eyes at 0.08, 0.17, 0.33, 0.5, 1, 1.5, 2, 4, 6, 8, 12 and 24 h after administration, and they were immediately transferred into a heparinized Eppendorf (EP) tube. The blood samples were then centrifuged at 13,000 r/min for 10 min. The plasma samples were stored at − 80 °C for later analysis.
The thawed plasma sample (0.1 ml) was transferred to another EP tube and 20 μl of DL, 50 μl of 2% formic acid and 500 μl of methanol were added. The mixture was vortexed for 2 min, and centrifuged at 13000 r/min for 10 min. The supernatant was transferred into a clean EP tube, and evaporated to dryness under a stream of nitrogen at 40 °C. The residue was dissolved in 100 μl of methanol. The supernatant was injected into the HPLC system.
An HPLC system consisting of a solvent-delivery system LC-30 AD, an autosampler SIL-30 AC, a column oven CTO-30 AC, a solvent degasser DGU-20A3, and a controller CBM-20A from […] was used in the study. Separation was conducted using a Shim-pack GIST C18-AQ HP column (2.1 mm × 100 mm, 3 μm). The column oven was maintained at 35 °C. The mobile phase was 0.1% formic acid in water as mobile phase A and acetonitrile as mobile phase B. The linear gradient elution program was set according to preliminary tests: 45–60% B, 0–2 min; 60–65% B, 2–6 min; 65–95% B, 6–7 min; 95–45% B, 7–9 min and 45% B, 9–10 min, with the flow rate kept at 0.3 ml/min. The injection volume was set at 2 μl.
The MS analysis was performed on a 4500 QTRAP™ system from Applied Biosystems (AB Sciex) equipped with Turbo V sources and Turbo Ion Spray™ (TIS) interface. Electrospray ionization was performed in positive mode. Ion source: electrospray ion source (ESI source); detection method: multiple reaction monitoring (MRM); ion source temperature: 500 °C; desolvent gas temperature: 550 °C; desolvent gas flow rate: 800 l/h. The detection ion pair, retention time, declustering voltage and collision energy of each index component and internal standard were shown in Table 2.
The plasma SA, NBP, NOL, ZL and BP concentrations were evaluated using the equation from the standard curves that were run with each batch of samples. The plasma concentration-time data were analyzed with the Drug and Statistics 2.0 software package to determine the pharmacokinetic parameters. The observed Cmax value was obtained from the observed data and the observed AUC0 → t value was calculated using the trapezoidal rule. The absolute bioavailability of VOC and the relative bioavailability of VOC-P188 and VOC-β-CD were calculated, the formula for calculating absolute bioavailability (F1) and relative bioavailability (F2): F1=AUCpo×Div/AUCiv×Dpo×100% […]
Where AUC is the area under the temporal curve of blood drug concentration (μg/l*h), D is administration dosage (mg/kg); the subscripts iv and po are injection and oral administration, respectively; the subscript R is reference drug (VOC); the subscript T is solid dispersion or inclusion compound.

[2] = In vitro dissolution, paddle method, pH 5.8 phosphate buffer; assay type: physicochemical
Method: Dissolution studies were performed according to the USP XXI method 2 (paddle method) at 37 ± 0.5 °C at 50 rpm. 900 ml of dissolution medium were used as standard volume. Dissolution samples (1 mL) were withdrawn at the specified times of 15, 30, 45, 60, 90, 120 min from Dissolution cups, and 1 ml of dissolution medium was replenished in the same time. Samples were filtered through a 0.45 μm nylon disc filter and were measured absorbance at 230 nm by HPLC [11].

[3] = Stability test of VOC-P188 and VOC-β-CD (temperature, illumination); assay type: physicochemical
[4] = VOC iv 30 mg/kg, rat plasma, n = 6
[5] = VOC po 120 mg/kg, rat plasma, n = 6
[6] = VOC-P188 solid dispersion po vs VOC po, rats
[7] = VOC-P188 solid dispersion po, rat plasma, n = 6
[8] = VOC-β-CD inclusion compound po vs VOC po, rats
[9] = VOC-β-CD inclusion compound po, rat plasma, n = 6
[10] = iv, 30 mg/kg, VOC iv 30 mg/kg, rat plasma, n = 6
[11] = iv, 30 mg/kg, VOC iv 30 mg/kg, rat plasma, n = 6, read-out: Tmax
[12] = iv, 30 mg/kg, VOC iv (tail vein) 30 mg/kg, rat plasma, n = 6
[13] = po, 120 mg/kg, VOC po 120 mg/kg, rat plasma, n = 6
[14] = po, 120 mg/kg, VOC po 120 mg/kg, rat plasma, n = 6, read-out: Tmax
[15] = po, VOC-P188 and VOC-β-CD po, rats, read-out: bioavailability in the two preparations
[16] = po, VOC-P188 solid dispersion po, rat plasma, n = 6
[17] = po, VOC-P188 solid dispersion po, rat plasma, n = 6, read-out: Tmax
[18] = po, VOC-β-CD inclusion compound po, rat plasma, n = 6
[19] = po, VOC-β-CD inclusion compound po, rat plasma, n = 6, read-out: Tmax

SMILES | t1/2α [1, 4] [h] | t1/2α [1, 5] [h] | F2 (relative bioavailability) [1, 6] [%] | t1/2α [1, 7] [h] | F2 (relative bioavailability) [1, 8] [%] | t1/2α [1, 9] | AUC(0-t) [1, 10] [µg·h/mL] | MRT last [1, 10] [h] | Tmax [1, 11] [h] | half-life [1, 10] [h] | Cmax [1, 12] [µg/mL] | AUC(0-t) [1, 13] [µg·h/mL] | Cmax [1, 13] [µg/mL] | MRT last [1, 13] [h] | Tmax [1, 14] [h] | half-life [1, 13] [h] | bioavailability [1, 15] [%] | AUC(0-t) [1, 16] [µg·h/mL] | Cmax [1, 16] [µg/mL] | MRT last [1, 16] [h] | also measured
CCC/C=C1\OC(=O)c2ccccc21 [BP] | 0.04 ± 0.04 | 1.38 ± 1.02 | 251.50 | 2.72 ± 3.66 | 363.55 | 7.02 ± 5.42^* h | 0.198 ± 0.0428 | 1.28 ± 0.32 | 0.083 | 0.7 ± 0.54 | 0.373 ± 0.155 | 0.0991 ± 0.0233 | 0.0437 ± 0.0109 | 3.46 ± 1.08 | 0.5 ± 0.28 | 3.74 ± 3.26 | < 50 | 0.249 ± 0.0245 | 0.0403 ± 0.00837 | 7.42 ± 0.6 | Tmax ([1]; po, 120 mg/kg, after oral administration of VOC, rats, read-out: Tmax (time of peak concentration)): < 0.5 h; Tmax [1, 17]: 0.42 ± 0.33 h; half-life [1, 16]: 8.64 ± 2.44 h; AUC(0-t) [1, 18]: 0.298 ± 0.0317 µg·h/mL; Cmax [1, 18]: 0.0388 ± 0.016 µg/mL; MRT last [1, 18]: 8.45 ± 0.77 h; Tmax [1, 19]: 0.35 ± 0.19 h; half-life [1, 18]: 19.6 ± 5.63 h; solubility in pH 5.8 PBS [2]: poor solubility
CCCCC1OC(=O)C2=C1CCC=C2 (centres unmarked) [SA, senkyunolide A] | 0.09 ± 0.05 | 1.31 ± 1.58 | 185.82 | 1.50 ± 1.59 | 138.69 | 2.34 ± 1.24 h | 1.37 ± 0.315 | 0.72 ± 0.08 | 0.083 | 0.78 ± 0.66 | 3.43 ± 0.557 | 1.26 ± 0.274 | 0.631 ± 0.31 | 4.19 ± 0.49 | 0.19 ± 0.1 | 3.79 ± 1.4 | < 50 | 2.36 ± 0.351 | 0.701 ± 0.349 | 6.45 ± 0.96 | bioavailability ([1]; po, 120 mg/kg, VOC po vs VOC iv, rats, read-out: F1 (absolute bioavailability)): < 25%; Tmax [1, 17]: 0.2 ± 0.16 h; half-life [1, 16]: 7.24 ± 2.57 h; AUC(0-t) [1, 18]: 1.83 ± 0.532 µg·h/mL; Cmax [1, 18]: 0.399 ± 0.0683 µg/mL; MRT last [1, 18]: 6.22 ± 1.51 h; Tmax [1, 19]: 0.5 ± 0.26 h; half-life [1, 18]: 2.98 ± 0.57 h; content decreased by ([3]; in VOC-P188, 60 °C for 10 days): 15.8%; content decreased by ([3]; in VOC-β-CD, 60 °C for 10 days): 9.0%
